Values quoted from earlier work in patent US20260182571A1, “A ME[…] AND USE THEREOF” (I-TECH AB, priority 2022, published 2026).

Conditions: pH 7 and 20° C.

**Q.** Which “(equilibrium) water solubility” value does the source give for `On1ccccc1=S.On1ccccc1=S.[Cu]` [CuPT, copper (II) pyrithione] here?
**A.** less than 0.039 mg/L
